In ChEMBL document CHEMBL4152339, “Design and synthesis of novel 1H-tetrazol-5-amine based potent antimicrobial agents: DNA topoisomerase IV and gyrase affinity evaluation supported by molecular docking studies” (Eur J Med Chem, 2018):
Values after ≈ are worked out from the molar mass of the structure shown.

Columns and labels:
Escherichia coli [1] = assay: Antibacterial activity against Escherichia coli ML 8 after 18 hrs by CLSI disc diffusion method; type: functional; details: ML 8, 18 h
[2] = test system: Bordetella bronchiseptica; assay: Antibacterial activity against Bordetella bronchiseptica ATCC 4617 after 18 hrs by CLSI disc diffusion method; type: functional; details: ATCC 4617, 18 h
[3] = test system: Staphylococcus epidermidis; assay: Antibacterial activity against Staphylococcus epidermidis ATCC 35984 after 18 hrs by CLSI […] method; type: functional; details: ATCC 35984, 18 h
Staphylococcus aureus [4] = assay: Antibacterial activity against Staphylococcus aureus ATCC 25923 after 18 hrs by CLSI disc diffusion method; type: functional; details: ATCC 25923, 18 h
Bacillus spizizenii = assay: Antibacterial activity against Bacillus subtilis ATCC 6633 after 18 hrs by CLSI disc diffusion method; type: functional; details: ATCC 6633, 18 h
Pseudomonas aeruginosa [5] = assay: Antibacterial activity against Pseudomonas aeruginosa 6m after 18 hrs by CLSI disc diffusion method; type: functional
Staphylococcus aureus [6] = assay: Antibacterial activity against Staphylococcus aureus 498 after 18 hrs by CLSI disc diffusion method; type: functional; details: Staphylococcus aureus, 498, 18 h
[7] = Selectivity index, ratio of IC50 for human HaCaT cells to MIC for Bacillus subtilis ATCC 6633; type: toxicity; details: read-out: Selectivity Index
Micrococcus luteus [8] = assay: Antibacterial activity against Micrococcus luteus ATCC 9341 after 18 hrs by CLSI disc diffusion method; type: functional; details: ATCC 9341, 18 h
Pseudomonas aeruginosa [9] = assay: Antibacterial activity against Pseudomonas aeruginosa 11m after 18 hrs by CLSI disc diffusion method; type: functional
Staphylococcus aureus [10] = assay: Antibacterial activity against Staphylococcus aureus 585 after 18 hrs by CLSI disc diffusion method; type: functional; details: Staphylococcus aureus, 585, 18 h
HaCaT = assay: Cytotoxicity activity against human HaCaT cells assessed as reduction in cell viability after 72 hrs by MTT assay; type: cell-based
[11] = Selectivity index, ratio of IC50 for human HaCaT cells to MIC for Proteus vulgaris NCTC 4635; type: toxicity; details: read-out: Selectivity Index
[12] = test system: Staphylococcus epidermidis; assay: Antibacterial activity against Staphylococcus epidermidis ATCC 12228 after 18 hrs by CLSI disc diffusion method; type: functional; details: ATCC 12228, 18 h
[13] = test system: Staphylococcus epidermidis; assay: Antibacterial activity against Staphylococcus epidermidis 471 after 18 hrs by CLSI disc diffusion method; type: functional; details: Staphylococcus epidermidis, 471, 18 h
Staphylococcus aureus [14] = assay: Antibacterial activity against Staphylococcus aureus 496 after 18 hrs by CLSI disc diffusion method; type: functional; details: Staphylococcus aureus, 496, 18 h
Enterococcus hirae = assay: Antibacterial activity against Enterococcus hirae ATCC 10541 after 18 hrs by CLSI disc diffusion method; type: functional; details: ATCC 10541, 18 h
Staphylococcus aureus [15] = assay: Antibacterial activity against Staphylococcus aureus NCTC 4163 after 18 hrs by CLSI disc diffusion method; type: functional; details: NCTC 4163, 18 h
[16] = test system: Staphylococcus epidermidis; assay: Antibacterial activity against Staphylococcus epidermidis 510 after 18 hrs by CLSI disc diffusion method; type: functional; details: Staphylococcus epidermidis, 510, 18 h
Pseudomonas aeruginosa [17] = assay: Antibacterial activity against Pseudomonas aeruginosa ATCC 15442 after 18 hrs by CLSI disc diffusion method; type: functional; details: ATCC 15442, 18 h
Escherichia coli [18] = assay: Antibacterial activity against Escherichia coli ML 6 after 18 hrs by CLSI disc diffusion method; type: functional; details: ML 6, 18 h
Bacillus cereus = assay: Antibacterial activity against Bacillus cereus ATCC 11778 after 18 hrs by CLSI disc diffusion method; type: functional; details: ATCC 11778, 18 h
Staphylococcus aureus [19] = assay: Antibacterial activity against Staphylococcus aureus 495 after 18 hrs by CLSI disc diffusion method; type: functional; details: Staphylococcus aureus, 495, 18 h
[20] = test system: Staphylococcus epidermidis; assay: Antibacterial activity against Staphylococcus epidermidis 431 after 18 hrs by CLSI disc diffusion method; type: functional; details: Staphylococcus epidermidis, 431, 18 h
Staphylococcus aureus [21] = assay: Antibacterial activity against Staphylococcus aureus 537 after 18 hrs by CLSI disc diffusion method; type: functional; details: Staphylococcus aureus, 537, 18 h
Pseudomonas aeruginosa [22] = assay: Antibacterial activity against Pseudomonas aeruginosa 31m after 18 hrs by CLSI disc diffusion method; type: functional
Escherichia coli [23] = assay: Antibacterial activity against Escherichia coli ML 15 after 18 hrs by CLSI disc diffusion method; type: functional; details: ML 15, 18 h
[24] = Inhibition of Staphylococcus aureus DNA topoisomerase 4 using Kinetoplast DNA as substrate after 30 mins by ethidium bromide staining based agarose gel electrophoresis method
Pseudomonas aeruginosa [25] = assay: Antibacterial activity against Pseudomonas aeruginosa 12m after 18 hrs by CLSI disc diffusion method; type: functional
[26] = test system: Staphylococcus epidermidis; assay: Antibacterial activity against Staphylococcus epidermidis 469 after 18 hrs by CLSI disc diffusion method; type: functional; details: Staphylococcus epidermidis, 469, 18 h
Staphylococcus aureus [27] = assay: Antibacterial activity against Staphylococcus aureus 497 after 18 hrs by CLSI disc diffusion method; type: functional; details: Staphylococcus aureus, 497, 18 h
Enterococcus faecalis = assay: Antibacterial activity against Enterococcus faecalis ATCC 29212 after 18 hrs by CLSI disc diffusion method; type: functional; details: ATCC 29212, 18 h
Escherichia coli [28] = assay: Antibacterial activity against Escherichia coli ML 12 after 18 hrs by CLSI disc diffusion method; type: functional; details: ML 12, 18 h
Staphylococcus aureus [29] = assay: Antibacterial activity against Staphylococcus aureus ATCC 6538 after 18 hrs by CLSI disc diffusion method; type: functional; details: ATCC 6538, 18 h
Micrococcus luteus [30] = assay: Antibacterial activity against Micrococcus luteus ATCC 10240 after 18 hrs by CLSI disc diffusion method; type: functional; details: ATCC 10240, 18 h
[31] = Selectivity index, ratio of IC50 for human HaCaT cells to MIC for Staphylococcus aureus NCTC 4163; type: toxicity; details: read-out: Selectivity Index
[32] = test system: Staphylococcus epidermidis; assay: Antibacterial activity against Staphylococcus epidermidis 432 after 18 hrs by CLSI disc diffusion method; type: functional; details: Staphylococcus epidermidis, 432, 18 h
Staphylococcus aureus [33] = assay: Antibacterial activity against Staphylococcus aureus 586 after 18 hrs by CLSI disc diffusion method; type: functional; details: Staphylococcus aureus, 586, 18 h
Pseudomonas aeruginosa [34] = assay: Antibacterial activity against Pseudomonas aeruginosa 10m after 18 hrs by CLSI disc diffusion method; type: functional
[35] = test system: Staphylococcus epidermidis; assay: Antibacterial activity against Staphylococcus epidermidis 511 after 18 hrs by CLSI disc diffusion method; type: functional; details: Staphylococcus epidermidis, 511, 18 h
Escherichia coli [36] = assay: Antibacterial activity against Escherichia coli ML 17 after 18 hrs by CLSI disc diffusion method; type: functional; details: ML 17, 18 h
[37] = test system: Staphylococcus epidermidis; assay: Antibacterial activity against Staphylococcus epidermidis 423 after 18 hrs by CLSI disc diffusion method; type: functional; details: Staphylococcus epidermidis, 423, 18 h
A549 = assay: Cytotoxicity activity against human A549 cells assessed as reduction in cell viability after 72 hrs by MTT assay; type: cell-based; details: A549, 72 h
[38] = test system: Staphylococcus epidermidis; assay: Antibacterial activity against Staphylococcus epidermidis 433 after 18 hrs by CLSI disc diffusion method; type: functional; details: Staphylococcus epidermidis, 433, 18 h
Pseudomonas aeruginosa [39] = assay: Antibacterial activity against Pseudomonas aeruginosa 18m after 18 hrs by CLSI disc diffusion method; type: functional
Escherichia coli [40] = assay: Antibacterial activity against Escherichia coli ML 16 after 18 hrs by CLSI disc diffusion method; type: functional; details: ML 16, 18 h
[41] = Selectivity index, ratio of IC50 for human HaCaT cells to MIC for Micrococcus luteus ATCC 10240; type: toxicity; details: read-out: Selectivity Index
[42] = Selectivity index, ratio of IC50 for human HaCaT cells to MIC for Escherichia coli ATCC 10538; type: toxicity; details: read-out: Selectivity Index
Escherichia coli [43] = assay: Antibacterial activity against Escherichia coli ML 5 after 18 hrs by CLSI disc diffusion method; type: functional; details: ML 5, 18 h
Staphylococcus aureus [44] = assay: Antibacterial activity against Staphylococcus aureus 572 after 18 hrs by CLSI disc diffusion method; type: functional; details: Staphylococcus aureus, 572, 18 h
Escherichia coli [45] = assay: Antibacterial activity against Escherichia coli ML 9 after 18 hrs by CLSI disc diffusion method; type: functional; details: ML 9, 18 h
Pseudomonas aeruginosa [46] = assay: Antibacterial activity against Pseudomonas aeruginosa 16m after 18 hrs by CLSI disc diffusion method; type: functional
Escherichia coli [47] = assay: Antibacterial activity against Escherichia coli ATCC 10538 after 18 hrs by CLSI disc diffusion method; type: functional; details: ATCC 10538, 18 h
[48] = Selectivity index, ratio of IC50 for human HaCaT cells to MIC for Bordetella bronchiseptica ATCC 4617; type: toxicity; details: read-out: Selectivity Index
Pseudomonas aeruginosa [49] = assay: Antibacterial activity against Pseudomonas aeruginosa ATCC 27853 after 18 hrs by CLSI disc diffusion method; type: functional; details: ATCC 27853, 18 h
[50] = Selectivity index, ratio of IC50 for human HaCaT cells to MIC for Enterococcus hirae ATCC 10541; type: toxicity; details: read-out: Selectivity Index
Pseudomonas aeruginosa [51] = assay: Antibacterial activity against Pseudomonas aeruginosa 7m after 18 hrs by CLSI disc diffusion method; type: functional
Proteus vulgaris = assay: Antibacterial activity against Proteus vulgaris NCTC 4635 after 18 hrs by CLSI disc diffusion method; type: functional; details: NCTC 4635, 18 h

MIC (Escherichia coli [1]): 14 µM (≈ 4.06 µg/mL)
MIC [2]: 14 µM (≈ 4.06 µg/mL)
MIC [3]: 7 µM (≈ 2.03 µg/mL)
MIC (Staphylococcus aureus [4]): 14 µM (≈ 4.06 µg/mL)
MIC (Bacillus spizizenii): 7 µM (≈ 2.03 µg/mL)
MIC (Pseudomonas aeruginosa [5]): 14 µM (≈ 4.06 µg/mL)
MIC (Staphylococcus aureus [6]): 7 µM (≈ 2.03 µg/mL)
MIC (Micrococcus luteus [8]): 14 µM (≈ 4.06 µg/mL)
MIC (Pseudomonas aeruginosa [9]): 28 µM (≈ 8.11 µg/mL)
MIC (Staphylococcus aureus [10]): 7 µM (≈ 2.03 µg/mL)
MIC [12]: 7 µM (≈ 2.03 µg/mL)
MIC [13]: 14 µM (≈ 4.06 µg/mL)
MIC (Staphylococcus aureus [14]): 14 µM (≈ 4.06 µg/mL)
MIC (Enterococcus hirae): 28 µM (≈ 8.11 µg/mL)
MIC (Staphylococcus aureus [15]): 14 µM (≈ 4.06 µg/mL)
MIC [16]: 14 µM (≈ 4.06 µg/mL)
MIC (Pseudomonas aeruginosa [17]): 111 µM (≈ 32.2 µg/mL)
MIC (Escherichia coli [18]): 111 µM (≈ 32.2 µg/mL)
MIC (Bacillus cereus): 7 µM (≈ 2.03 µg/mL)
MIC (Staphylococcus aureus [19]): 7 µM (≈ 2.03 µg/mL)
MIC [20]: 7 µM (≈ 2.03 µg/mL)
MIC (Staphylococcus aureus [21]): 14 µM (≈ 4.06 µg/mL)
MIC (Pseudomonas aeruginosa [22]): 14 µM (≈ 4.06 µg/mL)
MIC (Escherichia coli [23]): 111 µM (≈ 32.2 µg/mL)
IC50 [24]: 11.9 µg/mL (≈ 41.1 µM)
MIC (Pseudomonas aeruginosa [25]): 14 µM (≈ 4.06 µg/mL)
MIC [26]: 7 µM (≈ 2.03 µg/mL)
MIC (Staphylococcus aureus [27]): 7 µM (≈ 2.03 µg/mL)
MIC (Enterococcus faecalis): 56 µM (≈ 16.2 µg/mL)
MIC (Escherichia coli [28]): 111 µM (≈ 32.2 µg/mL)
MIC (Staphylococcus aureus [29]): 7 µM (≈ 2.03 µg/mL)
MIC (Micrococcus luteus [30]): 7 µM (≈ 2.03 µg/mL)
MIC [32]: 14 µM (≈ 4.06 µg/mL)
MIC (Staphylococcus aureus [33]): 14 µM (≈ 4.06 µg/mL)
MIC (Pseudomonas aeruginosa [34]): 14 µM (≈ 4.06 µg/mL)
MIC [35]: 14 µM (≈ 4.06 µg/mL)
MIC (Escherichia coli [36]): 14 µM (≈ 4.06 µg/mL)
MIC [37]: 7 µM (≈ 2.03 µg/mL)
MIC [38]: 14 µM (≈ 4.06 µg/mL)
MIC (Pseudomonas aeruginosa [39]): 28 µM (≈ 8.11 µg/mL)
MIC (Escherichia coli [40]): 14 µM (≈ 4.06 µg/mL)
MIC (Escherichia coli [43]): 14 µM (≈ 4.06 µg/mL)
MIC (Staphylococcus aureus [44]): 14 µM (≈ 4.06 µg/mL)
MIC (Escherichia coli [45]): 28 µM (≈ 8.11 µg/mL)
MIC (Pseudomonas aeruginosa [46]): 28 µM (≈ 8.11 µg/mL)
MIC (Escherichia coli [47]): 14 µM (≈ 4.06 µg/mL)
MIC (Pseudomonas aeruginosa [49]): 14 µM (≈ 4.06 µg/mL)
MIC (Pseudomonas aeruginosa [51]): 14 µM (≈ 4.06 µg/mL)
MIC (Proteus vulgaris): 14 µM (≈ 4.06 µg/mL)
Structure (SMILES): Cc1ccc(-n2nnnc2NCc2ccco2)cc1Cl
selectivity ratio [7]: 11.4
IC50 (HaCaT): 80 µM
selectivity ratio [11]: 11.4
selectivity ratio [31]: 5.71
IC50 (A549): 78 µM
selectivity ratio [41]: 11.4
selectivity ratio [42]: 11.4
selectivity ratio [48]: 11.4
selectivity ratio [50]: 2.85
